Measurements taken from patent publication US20260286295A1, “COMPOSITION FOR INDUCING DIRECT DIFFERENTIATION OF STEM CELLS INTO CORNEAL ENDOTHELIAL CELLS AND METHOD FOR INDUCING DIRECT DIFFERENTIATION USING SAME” (THE ASAN FOUNDATION, priority 2023, published 2026).

Test system: iPSCs
Assay: ZO-1 immunocytochemical staining, efficiency of direct differentiation of iPSCs into CECs
Type: cell-based, human
Settings: concluded from culture media that omit the constituent (Examples 3-4 to 3-7)
Description: To compare the effect on differentiation efficiency using ZO-1 marker staining of iPSC-derived CECs, CECs were fixed in 4% paraformaldehyde for 30 minutes, washed with PBS buffer, permeabilized with 0.5% Triton X-100, and blocked in PBST containing 1% bovine serum albumin (Sigma-Aldrich). […] Nuclei were counterstained for 10 minutes with 4′,6-diamidino-2-phenylindole (DAPI; Sigma-Aldrich), and fluorescence signals were detected using a laser scanning confocal microscope (Olympus, Tokyo, Japan) or a fluorescence microscope (EVOS, Life Technologies).

| SMILES | role of the constituent in direct differentiation from iPSCs into CECs |
| --- | --- |
| Cc1cncc2cccc(S(=O)(=O)N3CCCNC[C@@H]3C)c12 [Example H-1152, (2S)-2-methyl-1-[(4-methyl-5-isoquinolinyl)sulfonyl]hexahydro-1H-1,4-diazepine] | important |
| O=S(=O)(c1cccc2cnccc12)N1CCCNCC1 [Fasudil, fasudil] | important |
| NC(=O)c1ccc(-c2nc(-c3ccc4c(c3)OCO4)c(-c3ccccn3)[nH]2)cc1 [SB431542, 4-[4-(2H-1,3-benzodioxol-5-yl)-5-(pyridin-2-yl)-1H-imidazol-2-yl]benzamide] | important |
